Drawing on patent US8410126B2, “Pyrimidine inhibitors of PKTK2” (Boehringer Ingelheim International GmbH, priority 2009, dated 2013), this text covers IC50 for 18 compounds.

pIC50: −log10 of the molar value.

In one experiment the target is T1, PTK2 (Homo sapiens, UniProt Q05397).
T1 construct: purchased Invitrogen PV3832
T1 sequence (Q05397 whole entry): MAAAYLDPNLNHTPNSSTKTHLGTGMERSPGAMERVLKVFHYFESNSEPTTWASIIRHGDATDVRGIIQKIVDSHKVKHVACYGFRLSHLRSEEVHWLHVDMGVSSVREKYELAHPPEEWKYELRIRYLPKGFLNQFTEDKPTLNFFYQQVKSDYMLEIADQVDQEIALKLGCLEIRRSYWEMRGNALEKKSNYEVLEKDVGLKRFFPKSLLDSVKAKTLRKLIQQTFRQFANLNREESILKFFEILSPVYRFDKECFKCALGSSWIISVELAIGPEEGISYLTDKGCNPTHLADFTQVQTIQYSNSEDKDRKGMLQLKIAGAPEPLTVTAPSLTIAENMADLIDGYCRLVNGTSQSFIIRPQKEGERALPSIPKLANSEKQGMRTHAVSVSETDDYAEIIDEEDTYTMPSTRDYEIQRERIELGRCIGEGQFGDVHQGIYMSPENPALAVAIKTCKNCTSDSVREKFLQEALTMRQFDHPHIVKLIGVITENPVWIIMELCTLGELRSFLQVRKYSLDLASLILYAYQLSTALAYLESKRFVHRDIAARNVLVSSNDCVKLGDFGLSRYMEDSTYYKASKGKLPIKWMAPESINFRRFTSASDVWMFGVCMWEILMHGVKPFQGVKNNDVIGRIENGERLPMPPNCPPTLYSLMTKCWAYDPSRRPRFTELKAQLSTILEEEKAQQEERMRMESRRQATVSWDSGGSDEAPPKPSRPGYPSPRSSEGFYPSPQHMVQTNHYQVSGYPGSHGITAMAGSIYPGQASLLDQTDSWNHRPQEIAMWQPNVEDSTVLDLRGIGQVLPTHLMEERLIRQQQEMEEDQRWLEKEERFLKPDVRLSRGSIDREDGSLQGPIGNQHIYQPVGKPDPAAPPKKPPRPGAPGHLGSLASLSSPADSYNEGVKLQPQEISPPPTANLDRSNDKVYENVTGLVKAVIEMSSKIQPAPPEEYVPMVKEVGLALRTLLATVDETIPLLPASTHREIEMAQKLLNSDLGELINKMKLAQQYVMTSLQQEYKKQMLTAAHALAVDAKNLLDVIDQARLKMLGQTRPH
The experiment is described as follows: PTK2 enzyme test Assay 2 (DELFIA, poly-Glu-Tyr substrate, PT66 antibody). It is filed as biochemical. The note with it: Assay 2 (values marked *); 1 h pre-incubation, 50 μM ATP mix, final DMSO 0.5%. The source says:
This test uses active PTK2 enzyme (Invitrogen Code PV3832) and poly-Glu-Tyr (4:1, Sigma P-0275) as the kinase substrate. The kinase activity is detected by means of the phosphorylation of the substrate in a DELFIA™ assay. The phosphorylated substrate is detected with the europium-labelled phosphotyrosine antibody PT66 (Perkin Elmer, No.: AD0040).
In order to determine concentration-activity curves with PTK2-inhibitors the compounds are serially diluted first of all in 100% DMSO and then in kinase dilution buffer (20 mM TRIS/HCl pH 7.5, 0.1 mM EDTA, 0.1 mM EGTA, 0.286 mM sodium orthovanadate, 10% glycerol with the addition of freshly prepared BSA (fraction V, 1 mg/mL) and DTT (1 mM)) and 10 μL of each dilution are dispensed per well in a 96-well microtitre plate (clear U-shaped base plate, Greiner No. 650101) (the inhibitors are tested in duplicates) and mixed with 10 μL/well of PTK2 kinase (0.01 μg/well). PTK2 kinase is diluted accordingly beforehand with kinase dilution buffer. The diluted PTK2 inhibitor and the PTK2 kinase are pre-incubated for 1 h at RT and shaken at 500 revolutions per min. Then 10 μL/well poly-Glu-Tyr substrate (25 μg/well poly-Glu-Tyr, 0.05 μg/well biotinylated poly-Glu-Tyr dissolved in 250 mM TRIS/HCl pH 7.5, 9 mM DTT) are added. The reaction is started by the addition of 20 μL of ATP Mix (30 mM TRIS/HCl pH 7.5, 0.02% Brij, 0.2 mM sodium orthovanadate, 10 mM magnesium acetate, 0.1 mM EGTA, 1× phosphatase inhibitor cocktail 1 (Sigma, No.: P2850), 50 μM ATP (Sigma, No.: A3377; 15 mM stock solution))—the final concentration of DMSO is 0.5%. After 1 h kinase reaction (the plates are shaken at 500 rpm), the reaction is stopped by the addition of 12 μL/well of 100 mM EDTA, pH 8, and shaken for a further 5 min at RT (500 U/min). 55 μL of the reaction mixture are transferred into a streptavidin plate (Strepta Well High Bind (transparent, 96-well) made by Roche, No.: 11989685001) and incubated for 1 h at RT (shaking at 500 rpm). Then the microtitre plate is washed five times with 200 μL/well D-PBS (Invitrogen, No. 14190). 100 μL of a solution containing DELFIA Eu-N1 Anti-Phosphotyrosine PT66 antibody (Perkin Elmer, No.: AD0040, diluted 1:9000 in DELFIA test buffer (Perkin Elmer, No.: 1244-111)) is then added and it is incubated for 1 h at RT (shaking at 500 rpm). Then the plate is washed five times with 200 μL/well DELFIA washing buffer (Perkin Elmer, No.: 1244-114), 200 μL/well strengthening solution (Perkin Elmer, No.: 1244-105) is added and the whole is incubated for 10 min at RT (shaking at 300 rpm).
The time-delayed europium fluorescence is then measured in a microtitre plate reader (VICTOR^3, Perkin Elmer). The positive control consists of wells that contain solvent (0.5% DMSO in test buffer) and display uninhibited kinase activity. Wells that contain test buffer instead of enzyme act as a control for the background kinase activity.
The IC50 values are determined from concentration-activity analyses by iterative calculation using a sigmoid curve analysis algorithm (FIFTY, based on GraphPAD Prism Version 3.03) with a variable Hill coefficient.
By pIC50 is commonly meant the IC50 on a negative log10 scale, so that one unit is a factor of ten. A lower pIC50 goes with a large IC50. Take `COc1ccc(NC(=O)C2CCN(C)C2)cc1Nc1ncc(C(F)(F)F)c(N[C@@H]2Cc3ccccc3[C@H]2N(C)S(C)(=O)=O)n1` (stereo partly drawn) [Example I-61, 1-methyl-pyrrolidine-3-carboxylic acid (3-{4-[(1R,2R)-1-(methanesulphonyl-methyl-amino)-indan-2-ylamino]-5-trifluoromethyl-pyrimidin-2-ylamino}-4-methoxy-phenyl)-amide]: the negative-log IC50 (pIC50) is 9.37.
Still for that read-out and setting: then `COc1ccc(NC(=O)C2CCN(C)CC2)cc1Nc1ncc(C(F)(F)F)c(N[C@@H]2Cc3ccccc3[C@H]2N(C)S(C)(=O)=O)n1` [Example I-62, 1-methyl-piperidine-4-carboxylic acid (3-{4-[(1R,2R)-1-(methanesulphonyl-methyl-amino)-indan-2-ylamino]-5-trifluoromethyl-pyrimidin-2-ylamino}-4-methoxy-phenyl)-amide], with 9.21; and `COc1ccc(C(=O)NCCN(C)C)cc1Nc1ncc(C(F)(F)F)c(N[C@@H]2Cc3ccccc3[C@H]2N(C)S(C)(=O)=O)n1` [Example I-63, N-(2-dimethylamino-ethyl)-3-{4-[(1R,2R)-1-(methanesulphonyl-methyl-amino)-indan-2-ylamino]-5-trifluoromethyl-pyrimidin-2-ylamino}-4-methoxy-benzamide], with 9.15; and `COc1cc(N2CCN(C(C)(C)C)CC2)ccc1Nc1ncc(C(F)(F)F)c(N[C@@H]2Cc3ccccc3[C@H]2N(C)S(C)(=O)=O)n1` [Example I-66, N-((1R,2R)-2-{2-[4-(4-tert-butyl-piperazin-1-yl)-2-methoxy-phenylamino]-5-trifluoromethyl-pyrimidin-4-ylamino}-indan-1-yl)-N-methyl-methanesulphonamide], with 9.22.
Same read-out and setting: then `CCc1cc(Nc2ncc(C(F)(F)F)c(N[C@@H]3Cc4ccccc4[C@H]3N(C)S(C)(=O)=O)n2)c(OC)cc1N1CCN(C)CC1` [Example I-67, N-((1R,2R)-2-{2-[5-ethyl-2-methoxy-4-(4-methyl-piperazin-1-yl)-phenylamino]-5-trifluoromethyl-pyrimidin-4-ylamino}-indan-1-yl)-N-methyl-methanesulphonamide], with 9.17.

The target in the next experiment is T1, PTK2. Briefly: PTK2 enzyme test Assay 1 (DELFIA, poly-Glu-Tyr substrate, PT60 antibody). It is filed as biochemical. The settings on record: Assay 1 (values without *); 1 h pre-incubation, 50 μM ATP mix, final DMSO 2%. The procedure: This test uses active PTK2 enzyme (Invitrogen Code PV3832) and poly-Glu-Tyr (4:1, Sigma P-0275) as the kinase substrate. The kinase activity is detected through the phosphorylation of the substrate in a DELFIA™ assay. The phosphorylated substrate is detected with the europium-labelled phosphotyrosine antibody PT60 (Perkin Elmer, No.: AD00400).
In order to determine concentration-activity curves with PTK2-inhibitors the compounds are serially diluted in 10% DMSO/H2O and 10 μL of each dilution are placed in each well of a 96-well microtitre plate (clear plate with a U-shaped base, Greiner No. 650101) (the inhibitors are tested in duplicates) and mixed with 10 μL/well of PTK2 kinase (0.01 μg/well). PTK2 kinase has been correspondingly diluted beforehand with kinase dilution buffer (20 mM TRIS/HCl pH 7.5, 0.1 mM EDTA, 0.1 mM EGTA, 0.286 mM sodium orthovanadate, 10% glycerol with the addition of freshly prepared BSA (fraction V, 1 mg/mL) and DTT (1 mM)). The test compound and the PTK2 kinase are pre-incubated for 1 h at RT and shaken at 500 revolutions per min. The reaction is started by the addition of 10 μL/well poly (Glu,Tyr) substrate (25 μg/well poly (Glu, Tyr), 0.05 μg/well biotinylated poly (Glu,Tyr) dissolved in 250 mM TRIS/HCl pH 7.5, 9 mM DTT)—the final concentration of DMSO is 2%. Then 20 μL of ATP Mix (30 mM TRIS/HCl pH 7.5, 0.02% Brij, 0.2 mM sodium orthovanadate, 10 mM magnesium acetate, 0.1 mM EGTA, 1× phosphatase inhibitor cocktail 1 (Sigma, No.: P2850), 50 μM ATP (Sigma, No.: A3377; 15 mM stock solution)) are added. After 1 h of kinase reaction (the plates are shaken at 500 rpm), the reaction is stopped by the addition of 12 μL/well 100 mM EDTA, pH 8.0 and shaken for a further 5 min at RT (500 rpm). 55 μL of the reaction mixture are transferred into a streptavidin plate (Strepta Well High Bind (transparent, 96-well) made by Roche, No.: 11989685001) and incubated for 1 h at RT (shaking at 500 rpm). Then the microtitre plate is washed three times with 200 μL/well D-PBS (Invitrogen, No. 14190). 100 μL of a solution containing DELFIA Eu-N1 Anti-Phosphotyrosine PT60 antibody (Perkin Elmer, No.: AD0040, diluted 1:2000 in DELFIA test buffer (Perkin Elmer, No.: 1244-111)) is then added and the mixture is incubated for 1 h at RT (shaking at 500 rpm). Then the plate is washed three times with 200 μL/well DELFIA washing buffer (Perkin Elmer, No.: 1244-114), 200 μL/well strengthening solution (Perkin Elmer, No.: 1244-105) are added and the mixture is incubated for 10 min at RT (shaking at 300 rpm).
The time-delayed europium fluorescence is then measured in a microtitre plate reader (VICTOR^3, Perkin Elmer). […] Wells that contain test buffer instead of enzyme are used as a control of the background kinase activity.
The IC50 values are determined from analyses of the concentration activity by iterative calculation with the aid of a sigmoid curve analysis algorithm (FIFTY, based on GraphPAD Prism Version 3.03) with a variable Hill coefficient.
For `COc1cc(C(=O)NC2CCN(C)CC2)c(Cl)cc1Nc1ncc(C(F)(F)F)c(N[C@@H]2Cc3ccccc3[C@H]2N(C)S(C)(=O)=O)n1` [Example I-60, 2-chloro-4-{4-[(1R,2R)-1-(methanesulphonyl-methyl-amino)-indan-2-ylamino]-5-trifluoromethyl-pyrimidin-2-ylamino}-5-methoxy-N-(1-methyl-piperidin-4-yl)-benzamide], the pIC50 is 9.00.
Still for that read-out and setting: to `COc1cc(Nc2ncc(C(F)(F)F)c(N[C@@H]3Cc4ccccc4[C@H]3N(C)S(C)(=O)=O)n2)ccc1C(=O)NC1CCN(C)CC1` [Example I-64] belongs 9.12; to `COCCN1CCC(NC(=O)c2ccc(Nc3ncc(C(F)(F)F)c(N[C@@H]4Cc5ccccc5[C@H]4N(C)S(C)(=O)=O)n3)c(OC)c2)CC1` [Example I-65], 9.00.
Same read-out and setting: to `COc1cc(C(=O)NC2CCN(C)CC2)c(C)cc1Nc1ncc(Cl)c(N[C@@H]2Cc3ccccc3[C@H]2N(C)S(C)(=O)=O)n1` [Example I-68] belongs 9.00.
Compound `COc1cc(N2CCNCC2)ccc1Nc1ncc(C(F)(F)F)c(N[C@@H]2Cc3ccccc3[C@H]2N(C)S(C)(=O)=O)n1` [Example I-70, N-{(1R,2R)-2-[2-(2-methoxy-4-piperazin-1-yl-phenylamino)-5-trifluoromethyl-pyrimidin-4-ylamino]-indan-1-yl}-N-methyl-methanesulphonamide] had a pIC50 of 9.01.
Same read-out and setting: to `CNCc1ccc(Nc2ncc(C(F)(F)F)c(N[C@@H]3Cc4ccccc4[C@H]3N(C)S(C)(=O)=O)n2)c(OC)c1` [Example I-71, N-{(1R,2R)-2-[2-(2-methoxy-4-methylaminomethyl-phenylamino)-5-trifluoromethyl-pyrimidin-4-ylamino]-indan-1-yl}-N-methyl-methanesulphonamide] belongs 9.00; to `COCCN1CCN(c2ccc(Nc3ncc(C(F)(F)F)c(N[C@@H]4Cc5ccccc5[C@H]4N(C)S(C)(=O)=O)n3)c(OC)c2)CC1` [Example I-84], 9.00.
Still for that read-out and setting: then `COc1cc(NC(C)=O)ccc1Nc1ncc(C(F)(F)F)c(N[C@@H]2Cc3ccccc3[C@H]2N(C)S(C)(=O)=O)n1` [Example I-90], with 8.52; and `COc1cc(Nc2ncc(C(F)(F)F)c(N[C@@H]3Cc4ccccc4[C@H]3N(C)S(C)(=O)=O)n2)ccc1NC(C)=O` [Example I-92], with 8.70; and `CNC(=O)c1ccc(Nc2ncc(C(F)(F)F)c(N[C@@H]3c4ccccc4C[C@H]3NS(C)(=O)=O)n2)c(OC)c1` [Example I-95], with 8.22.
Same read-out and setting: to `COc1nc(C)ccc1Nc1ncc(C(F)(F)F)c(N[C@@H]2Cc3ccccc3[C@H]2N(C)S(C)(=O)=O)n1` [Example I-96] belongs 7.96; to `COc1cc(C(=O)NCCN(C)C)c(C)cc1Nc1ncc(Cl)c(N[C@@H]2Cc3ccccc3[C@H]2N(C)S(C)(=O)=O)n1` [Example I-97], 8.70.
`COc1cc(C(=O)NC2CCN(C)CC2)ccc1Nc1ncc(Br)c(N[C@@H]2Cc3ccccc3[C@H]2N(C)S(C)(=O)=O)n1` [Example I-98, 4-{5-bromo-4-[(1R,2R)-1-(methanesulphonyl-methyl-amino)-indan-2-ylamino]-pyrimidin-2-ylamino}-3-methoxy-N-(1-methyl-piperidin-4-yl)-benzamide] gave a pIC50 of 9.00.
